Molecules are shown by their SMILES.

In the assay the target is mTOR/GbL/Raptor (mTORC1) (Homo sapiens, UniProt P42345). Kind of assay: mTOR/GbL/Raptor (mTORC1) ELISA assay, phosphorylation of 4E-BP1. It counts as biochemical. As to conditions: 0.2 nM mTORC1, 40 uM ATP, 50 nM NHis-tagged 4E-BP1, 120 minutes; read-out: IC50 in this assay (mTORC1 ELISA). Here is the method: The measurement of mTORC1 enzyme activity was performed in an ELISA assay format following the phosphorylation of 4E-BP1 protein. All experiments were performed in the 384-well format. Generally, 0.5 μL DMSO containing varying concentrations of the test Compound was mixed with 15 μL enzyme solution. Kinase reactions were initiated with the addition of 15 μL of substrates-containing solution. The assay conditions were-as follows; 0.2 nM mTORC1, 40 uM ATPand 50 nM NHis-tagged4E-BP1 in20 mM Hepes, pH 7.2, 1 mM DTT, 50 mMNaC1, 10 mM MnC12, 0.02 mg/mL BSA, 0.01% CHAPS, 50 mM β-glycerophosphate. Following an incubation of 120 minutes at anibient temperature, 20 μL of the reaction volume was transferred to a Ni-Chelate-coated 384-well plate. The binding step of the 4E-BP1 protein proceeded for 60 minutes, followed by washing 4 times each with 50 uL of Tris-buffered saline solution (TBS). Anti-phospho-4E-BPl rabbit-IgG ([…]. 1:5000) in 5% BSA-TBST (0.2% Tween-20 in TBS) was added and further incubated for 60 minutes. Incubation with a secondary HRP-tagged anti-IgG was similarly performed after washing off the primary antibody (4 washes of 50 μL). Following the final wash step with TBST, 20 μL of SuperSignal ELISA Femto (Pierce Biotechnology) was added and the luminescence measured using an En Vision plate reader.
Background: An ELISA detects its analyte on a solid surface through an enzyme-linked reagent.
The term IC50 denotes the concentration at which inhibition is half-maximal. Consider `Cc1cc(-c2cnc3sc(N)nc3c2)cc2c1OCCN(c1nc(CN(C)C)nc(Cl)c1C(C)C)C2` [Compound 63, 6-(4-{6-chloro-2-[(dimethylamino)methyl]-5-(1-methylethyl)pyrimidin-4-yl}-9-methyl-2,3,4,5-tetrahydro-1,4-benzoxazepin-7-yl)[1,3]thiazolo[5,4-b]pyridin-2-amine], for which the IC50 was at most 0.1 µM.

On to `Cc1cc(-c2cccc(O)c2)cc2c1OCCN(c1nc(N)nc(C)c1C(C)C)C2` [Compound 70, 3-{4-[2-amino-6-methyl-5-(1-methylethyl)pyrimidin-4-yl]-9-methyl-2,3,4,5-tetrahydro-1,4-benzoxazepin-7-yl}phenol], for which the IC50 was in the range of 0.1 to 0.5 µM.

`Cc1cc(-c2cnc(Cl)c(NS(C)(=O)=O)c2)cc2c1OCCN(c1ncc(C#N)c(N)n1)C2` [Compound 28, N-{5-[4-(4-amino-5-cyanopyrimidin-2-yl)-9-methyl-2,3,4,5-tetrahydro-1,4-benzoxazepin-7-yl]-2-chloropyridin-3-yl}methanesulfonamide]: the IC50 was at most 0.1 µM.

With `Cc1ncc(C(C)C)c(N2CCOc3c(C)cc(-c4cnc5sc(N)nc5c4)cc3C2)n1` [Compound 107, 6-{9-methyl-4-[2-methyl-5-(1-methylethyl)pyrimidin-4-yl]-2,3,4,5-tetrahyro-1,4-benzoxazepin-7-yl}[1,3]thiazolo[5,4-b]pyridin-2-amine], the IC50 is at most 0.1 µM.

On to `Cc1cc(-c2cnc3sc(N)nc3c2)cc2c1OCCN(c1nc(C3CCCN3)nc(C)c1C(C)C)C2` (centres unmarked) [Compound 146, 6-{9-methyl-4-[6-methyl-5-(1-methylethyl)-2-pyrrolidin-2-ylpyrimidin-4-yl]-2,3,4,5-tetrahydro-1,4-benzoxazepin-7-yl}[1,3]thiazolo[5,4-b]pyridin-2-amine], for which the IC50 is at most 0.1 µM.

Turning to `Cc1cc(-c2cnc(N)s2)cc2c1OCCN(c1nc(N)nc(C)c1C(C)C)C2` [Compound 84, 4-[7-(2-amino-1,3-thiazol-5-yl)-9-methyl-2,3-dihydro-1,4-benzoxazepin-4(5H)-yl]-6-methyl-5-(1-methylethyl)pyrimidin-2-amine], the IC50 is at most 0.1 µM.

Regarding `Cc1cc(-c2cnc3sc(N)nc3c2)cc2c1OCCN(c1nc(CN3CCCC3)nc(C)c1C(C)C)C2` [Compound 59, 6-{9-methyl-4-[6-methyl-5-(1-methylethyl)-2-(pyrrolidin-1-ylmethyl)pyrimidin-4-yl]-2,3,4,5-tetrahydro-1,4-benzoxazepin-7-yl}[1,3]thiazolo[5,4-b]pyridin-2-amine], the IC50 was at most 0.1 µM.

Regarding `Cc1cc(-c2cnc3sc(N)nc3c2)cc2c1OCCN(c1nc(CF)nc(C)c1C(C)C)C2` [Compound 120, 6-{4-[2-(fluoromethyl)-6-methyl-5-(1-methylethyl)pyrimidin-4-yl]-9-methyl-2,3,4,5-tetrahydro-1,4-benzoxazepin-7-yl}[1,3]thiazolo[5,4-b]pyridin-2-amine], the 50% inhibitory concentration (IC50) was at most 0.1 µM.

As for `Cc1cnccc1N1CCOc2c(C)cc(-c3cnc4sc(N)nc4c3)cc2C1` [Compound 48, 6-[9-methyl-4-(3-methylpyridin-4-yl)-2,3,4,5-tetrahydro-1,4-benzoxazepin-7-yl][1,3]thiazolo[5,4-b]pyridin-2-amine], the IC50 fell in the range of 0.1 to 0.5 µM.

With `Cc1cc(-c2ccc3c(c2)OCO3)cc2c1OCCN(c1nc(N)nc(C)c1C(C)C)C2` [Compound 73, 4-[7-(1,3-benzodioxol-5-yl)-9-methyl-2,3-dihydro-1,4-benzoxazepin-4(5H)-yl]-6-methyl-5-(1-methylethyl)pyrimidin-2-amine], the IC50 is 0.1 to 0.5 µM.

Take `CCN(CCF)Cc1nc(C)c(C(C)C)c(N2CCOc3c(C)cc(-c4cnc5sc(N)nc5c4)cc3C2)n1` [Compound 159, 6-{4-[2-{[ethyl(2-fluoroethyl)amino]methyl}-6-methyl-5-(1-methylethyl)pyrimidin-4-yl]-9-methyl-2,3,4,5-tetrahydro-1,4-benzoxazepin-7-yl}[1,3]thiazolo[5,4-b]pyridin-2-amine]: the IC50 was at most 0.1 µM.

As to `Cc1nc2ccc(-c3cc(C)c4c(c3)CN(c3nc(N)nc(C)c3C(C)C)CCO4)cc2[nH]1` [Compound 2, 4-methyl-5-(1-methylethyl)-6-[9-methyl-7-(2-methyl-1H-benzimidazol-6-yl)-2,3-dihydro-1,4-benzoxazepin-4(5H)-yl]pyrimidin-2-amine], the IC50 is at most 0.1 µM.

Turning to `Cc1cc(-c2cnc3sc(N)nc3c2)cc2c1OCCN(c1nc(C3CNC3)nc(C)c1C(C)C)C2` [Compound 133, 6-{4-[2-azetidin-3-yl-6-methyl-5-(1-methylethyl)pyrimidin-4-yl]-9-methyl-2,3,4,5-tetrahydro-1,4-benzoxazepin-7-yl}[1,3]thiazolo[5,4-b]pyridin-2-amine], the IC50 was at most 0.1 µM.

Consider `Cc1cnc(N2CCOc3c(C)cc(-c4cnc5sc(N)nc5c4)cc3C2)nc1N` [Compound 37, 6-[4-(4-amino-5-methylpyrimidin-2-yl)-9-methyl-2,3,4,5-tetrahydro-1,4-benzoxazepin-7-yl][1,3]thiazolo[5,4-b]pyridin-2-amine], for which the IC50 lay in the range of 0.1 to 0.5 µM.

In the case of `Cc1cc(-c2cnc3sc(N)nc3c2)cc2c1OCCN(c1nc(N)ccc1C#N)C2` [Compound 55, 6-amino-2-[7-(2-amino[1,3]thiazolo[5,4-b]pyridin-6-yl)-9-methyl-2,3-dihydro-1,4-benzoxazepin-4(5H)-yl]pyridine-3-carbonitrile], the IC50 was at most 0.1 µM.

Take `Cc1cc(-c2cnc(Cl)c(NS(=O)(=O)C(F)(F)F)c2)cc2c1OCCN(c1nc(N)nc(C)c1C(C)C)C2` [Compound 52, N-(5-{4-[2-amino-6-methyl-5-(1-methylethyl)pyrimidin-4-yl]-9-methyl-2,3,4,5-tetrahydro-1,4-benzoxazepin-7-yl}-2-chloropyridin-3-yl)-1,1,1-trifluoromethanesulfonamide]: the IC50 is at most 0.1 µM.

On to `COCc1nc(C)c(C(C)C)c(N2CCOc3c(C)cc(-c4cnc5sc(N)nc5c4)cc3C2)n1` [Compound 93, 6-(9-methyl-4-{6-methyl-5-(1-methylethyl)-2-[(methyloxy)methyl]pyrimidin-4-yl}-2,3,4,5-tetrahydro-1,4-benzoxazepin-7-yl)[1,3]thiazolo[5,4-b]pyridin-2-amine], for which the half-inhibitory concentration (IC50) is at most 0.1 µM.

As for `Cc1cc(-c2cnc(Cl)c(NS(C)(=O)=O)c2)cc2c1OCCN(c1ncc(C(F)(F)F)c(N)n1)C2` [Compound 15, N-(5-{4-[4-amino-5-(trifluoromethyl)pyrimidin-2-yl]-9-methyl-2,3,4,5-tetrahydro-1,4-benzoxazepin-7-yl}-2-chloropyridin-3-yl)methanesulfonamide], the IC50 fell in the range of 0.1 to 0.5 µM.

In the case of `CCc1c(C)nc(CN(C)C)nc1N1CCOc2c(C)cc(-c3cnc4sc(N)nc4c3)cc2C1` [Compound 67, 6-(4-{2-[(dimethylamino)methyl]-5-ethyl-6-methylpyrimidin-4-yl}-9-methyl-2,3,4,5-tetrahydro-1,4-benzoxazepin-7-yl)[1,3]thiazolo[5,4-b]pyridin-2-amine], the concentration for half-maximal inhibition (IC50) is at most 0.1 µM.

As for `Cc1cc(-c2cnc3sc(N)nc3c2)cc2c1OCCN(c1nc([C@@H]3C[C@@H](F)CN3)nc(C)c1C(C)C)C2` [Compound 151, 6-(4-{2-[(2S,4R)-4-fluoropyrrolidin-2-yl]-6-methyl-5-(1-methylethyl)pyrimidin-4-yl}-9-methyl-2,3,4,5-tetrahydro-1,4-benzoazepin-7-yl)[1,3]thiazolo[5,4-b]pyridin-2-amine], the IC50 was at most 0.1 µM.

The record behind these values is US20140107100A1, “Benzoxazepines as Inhibitors of PI3K/mTOR and Methods of Their Use and Manufacture” (EXELIXIS, INC., priority 2010, published 2014).
